Results published in ChEMBL document CHEMBL5154944, “Discovery of Aryloxyphenyl-Heptapeptide Hybrids as Potent and Selective Matrix Metalloproteinase-2 Inhibitors for the Treatment of Idiopathic Pulmonary Fibrosis” (J Med Chem, 2022).
Non-standard residues stand in square brackets, D forms with d. Residues, ends and D or L forms follow the SMILES beside them. *: point of attachment. Benzenesulfonyl(4-OPh) = O=S(=O)(c1ccc(Oc2ccccc2)cc1)*; NMeI = CC[C@H](C)[C@H](NC)C(=O)O; NMeE = CN[C@@H](CCC(=O)O)C(=O)O; β3hP = O=C(O)C[C@@H]1CCCN1; Dab = NCC[C@H](N)C(=O)O; GABA = NCCCC(=O)O

What was measured:
Interstitial collagenase = biological target: T1, Interstitial collagenase (Homo sapiens, UniProt P03956); experiment: Inhibition of recombinant human MMP1 using MOCAc-Lys-Pro-Leu-Gly-Leu-A2pr(Dnp)-Ala-Arg-NH2 as substrate preincubated for 15 mins followed by substrate addition by fluroscence based assay
T1 sequence (P03956 whole entry): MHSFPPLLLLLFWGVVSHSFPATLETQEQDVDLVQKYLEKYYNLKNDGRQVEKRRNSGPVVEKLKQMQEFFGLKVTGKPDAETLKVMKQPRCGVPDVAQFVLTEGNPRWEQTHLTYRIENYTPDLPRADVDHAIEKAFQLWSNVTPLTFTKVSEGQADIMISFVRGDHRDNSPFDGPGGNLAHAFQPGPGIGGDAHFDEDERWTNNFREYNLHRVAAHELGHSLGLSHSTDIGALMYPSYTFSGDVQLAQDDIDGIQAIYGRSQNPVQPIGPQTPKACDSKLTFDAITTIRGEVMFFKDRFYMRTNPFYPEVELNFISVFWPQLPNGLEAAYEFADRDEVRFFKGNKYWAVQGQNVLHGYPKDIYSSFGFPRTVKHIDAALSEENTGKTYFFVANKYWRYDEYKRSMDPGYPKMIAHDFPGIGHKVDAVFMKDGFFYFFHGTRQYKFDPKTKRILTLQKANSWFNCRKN

[1] = Half life in fasted Sprague-Dawley rat at 0.4 mg/kg, iv by LC-MS/MS analysis; assay type: ADME, organism-based; conditions: in vivo
[2] = Volume of distribution at steady state in fasted Sprague-Dawley rat at 0.4 mg/kg, iv by LC-MS/MS analysis; assay type: ADME, organism-based; conditions: in vivo, read-out: Vdss
[3] = biological target: MMP-2/MMP-14 (Homo sapiens) (UniProt P50281+P08253); experiment: Selectivity ratio of IC50 for recombinant human MMP14 to IC50 for recombinant human MMP2; assay type: protein assay
[4] = Metabolic stability in rat hepatocytes assessed as parent compound remaining incubated for 1 hr by LC-MS/MS; assay type: ADME, cell-based, Hepatocyte; conditions: read-out: Stability
[5] = biological target: Matrix metalloproteinase-9 (Homo sapiens, UniProt P14780)
Sequence of Matrix metalloproteinase-9 (P14780 whole entry): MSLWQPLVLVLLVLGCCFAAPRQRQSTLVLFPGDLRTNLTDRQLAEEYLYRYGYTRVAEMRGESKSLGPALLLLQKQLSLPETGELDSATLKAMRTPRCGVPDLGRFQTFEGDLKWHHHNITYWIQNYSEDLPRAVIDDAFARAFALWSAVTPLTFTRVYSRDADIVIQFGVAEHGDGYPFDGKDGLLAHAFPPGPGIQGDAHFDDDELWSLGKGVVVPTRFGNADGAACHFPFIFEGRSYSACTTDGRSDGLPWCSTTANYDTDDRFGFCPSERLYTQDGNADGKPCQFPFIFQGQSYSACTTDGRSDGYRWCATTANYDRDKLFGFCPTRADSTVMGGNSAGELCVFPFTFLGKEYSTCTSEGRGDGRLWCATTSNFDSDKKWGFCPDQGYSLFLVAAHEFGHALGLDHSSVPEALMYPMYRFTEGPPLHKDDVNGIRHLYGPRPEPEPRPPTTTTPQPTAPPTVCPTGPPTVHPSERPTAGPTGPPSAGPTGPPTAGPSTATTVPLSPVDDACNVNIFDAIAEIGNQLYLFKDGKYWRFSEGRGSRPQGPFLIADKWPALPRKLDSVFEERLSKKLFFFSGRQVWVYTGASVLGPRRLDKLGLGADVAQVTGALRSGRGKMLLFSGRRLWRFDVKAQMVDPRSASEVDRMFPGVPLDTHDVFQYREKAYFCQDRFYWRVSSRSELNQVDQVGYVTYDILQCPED

[6] = biological target: MMP-1/MMP-2 (Homo sapiens) (UniProt P08253+P03956); experiment: Selectivity ratio of IC50 for recombinant human MMP1 to IC50 for recombinant human MMP2; assay type: protein assay
Sequence of MMP-1/MMP-2 (Homo sapiens) (P08253 whole entry, looked up, one chain of several): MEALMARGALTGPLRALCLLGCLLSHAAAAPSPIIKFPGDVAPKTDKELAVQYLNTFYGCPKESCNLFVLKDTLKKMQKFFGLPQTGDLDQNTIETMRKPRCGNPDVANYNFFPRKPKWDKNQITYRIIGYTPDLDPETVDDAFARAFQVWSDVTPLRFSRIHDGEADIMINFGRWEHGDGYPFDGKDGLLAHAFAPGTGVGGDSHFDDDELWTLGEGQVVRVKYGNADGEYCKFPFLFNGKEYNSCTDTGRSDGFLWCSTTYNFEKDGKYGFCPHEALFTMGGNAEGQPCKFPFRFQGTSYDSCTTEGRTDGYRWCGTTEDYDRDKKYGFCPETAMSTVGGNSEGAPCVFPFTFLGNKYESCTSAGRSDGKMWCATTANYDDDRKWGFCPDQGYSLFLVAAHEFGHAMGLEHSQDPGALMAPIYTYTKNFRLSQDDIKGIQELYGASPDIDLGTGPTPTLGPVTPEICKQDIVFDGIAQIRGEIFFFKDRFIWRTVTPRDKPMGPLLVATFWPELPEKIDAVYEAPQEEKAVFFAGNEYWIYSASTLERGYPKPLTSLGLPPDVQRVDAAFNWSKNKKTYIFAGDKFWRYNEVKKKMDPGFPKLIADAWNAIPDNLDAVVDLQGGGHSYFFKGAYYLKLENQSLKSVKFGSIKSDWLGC

Collagenase 3 = Collagenase 3 (Homo sapiens, UniProt P45452)
Homo sapiens [7] = species on record: Homo sapiens; experiment: Selectivity ratio of IC50 for recombinant human MMP7 to IC50 for recombinant human MMP2
Homo sapiens [8] = species on record: Homo sapiens; experiment: Selectivity ratio of IC50 for recombinant human MMP12 to IC50 for recombinant human MMP2
[9] = biological target: 72 kDa type IV collagenase (Homo sapiens, UniProt P08253)
Sequence of 72 kDa type IV collagenase (P08253 whole entry): as the sequence (P08253 whole entry, looked up, one chain of several) above

Stromelysin-1 = Stromelysin-1 (Homo sapiens, UniProt P08254); experiment: Inhibition of recombinant human MMP3 using MOCAc-Lys-Pro-Leu-Gly-Leu-A2pr(Dnp)-[…] as substrate preincubated for 15 mins followed by substrate addition by fluroscence based assay
Sequence of Stromelysin-1 (P08254 whole entry): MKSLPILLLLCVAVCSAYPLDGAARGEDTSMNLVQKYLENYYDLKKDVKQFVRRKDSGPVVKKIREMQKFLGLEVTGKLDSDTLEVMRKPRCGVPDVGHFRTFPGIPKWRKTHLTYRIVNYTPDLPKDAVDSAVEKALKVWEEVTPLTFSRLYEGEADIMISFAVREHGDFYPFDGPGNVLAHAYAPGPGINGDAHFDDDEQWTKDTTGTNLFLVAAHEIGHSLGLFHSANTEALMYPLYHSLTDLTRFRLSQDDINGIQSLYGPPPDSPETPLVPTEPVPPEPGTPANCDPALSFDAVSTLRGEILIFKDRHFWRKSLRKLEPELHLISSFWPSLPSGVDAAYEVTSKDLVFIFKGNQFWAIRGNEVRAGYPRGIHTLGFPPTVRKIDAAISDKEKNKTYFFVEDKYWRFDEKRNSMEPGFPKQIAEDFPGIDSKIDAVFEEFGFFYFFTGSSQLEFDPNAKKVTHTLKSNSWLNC

Neutrophil collagenase = Neutrophil collagenase (Homo sapiens, UniProt P22894)
Sequence of Neutrophil collagenase (P22894 whole entry): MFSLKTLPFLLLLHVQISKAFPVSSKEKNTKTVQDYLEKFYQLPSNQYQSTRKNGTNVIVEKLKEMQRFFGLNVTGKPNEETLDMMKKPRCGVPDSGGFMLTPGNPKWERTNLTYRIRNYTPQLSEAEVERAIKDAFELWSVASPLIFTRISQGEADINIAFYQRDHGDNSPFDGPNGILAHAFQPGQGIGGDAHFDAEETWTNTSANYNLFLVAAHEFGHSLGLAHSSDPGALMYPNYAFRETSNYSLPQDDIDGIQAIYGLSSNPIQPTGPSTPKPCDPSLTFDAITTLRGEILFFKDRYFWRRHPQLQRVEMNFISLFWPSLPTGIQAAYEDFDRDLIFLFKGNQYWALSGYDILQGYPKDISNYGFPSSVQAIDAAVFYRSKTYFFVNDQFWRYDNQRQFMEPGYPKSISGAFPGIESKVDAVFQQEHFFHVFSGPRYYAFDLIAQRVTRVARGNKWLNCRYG

physchem = conditions: buffer, pH 7.4
Homo sapiens [10] = species on record: Homo sapiens; experiment: Selectivity ratio of IC50 for recombinant human MMP3 to IC50 for recombinant human MMP2
[11] = Clearance in fasted Sprague-Dawley rat at 0.4 mg/kg, iv by LC-MS/MS analysis; assay type: ADME, organism-based; conditions: in vivo
[12] = biological target: MMP-2/MMP-9 (Homo sapiens) (UniProt P08253+P14780); experiment: Selectivity ratio of IC50 for recombinant human MMP9 to IC50 for recombinant human MMP2; assay type: protein assay
Matrilysin = biological target: T2, Matrilysin (Homo sapiens, UniProt P09237)
T2 sequence (P09237 whole entry): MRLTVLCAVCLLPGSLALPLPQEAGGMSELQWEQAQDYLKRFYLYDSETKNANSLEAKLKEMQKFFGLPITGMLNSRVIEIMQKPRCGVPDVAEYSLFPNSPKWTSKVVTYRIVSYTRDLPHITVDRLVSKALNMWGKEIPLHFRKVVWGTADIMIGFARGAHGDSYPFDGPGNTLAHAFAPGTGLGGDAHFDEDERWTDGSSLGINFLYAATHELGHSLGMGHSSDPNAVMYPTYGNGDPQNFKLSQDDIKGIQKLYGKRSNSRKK

[13] = biological target: Matrix metalloproteinase-14 (Homo sapiens, UniProt P50281); experiment: Inhibition of recombinant human MMP14 using MOCAc-Lys-Pro-Leu-Gly-Leu-A2pr(Dnp)-Ala-Arg-NH2 as substrate preincubated for 15 mins followed by substrate addition by fluroscence based assay
Homo sapiens [14] = species on record: Homo sapiens; experiment: Selectivity ratio of IC50 for recombinant human MMP8 to IC50 for recombinant human MMP2

Compound | IC50 (Interstitial collagenase) | half-life [1] | Vd [2] | Ratio IC50 [3] | remaining at 1 h, 1 µM [4] | IC50 [5] | Ratio IC50 [6] | IC50 (Collagenase 3) | Ratio IC50 (Homo sapiens [7]) | Ratio IC50 (Homo sapiens [8]) | IC50 [9] | IC50 (Stromelysin-1) | IC50 (Neutrophil collagenase) | logD (physchem) | Ratio IC50 (Homo sapiens [10]) | clearance [11] | Ratio IC50 [12] | IC50 (Matrilysin) | IC50 [13] | Ratio IC50 (Homo sapiens [14])
CC[C@H](C)[C@@H](C(=O)N1CCC[C@H]1CC(N)=O)N(C)C(=O)[C@H](CC(C)C)NC(=O)[C@H](C)NC(=O)[C@H](CC(=O)O)NC(=O)[C@H](CC(N)=O)NC(=O)CCCNS(=O)(=O)c1ccc(Oc2ccccc2)cc1 ({Benzenesulfonyl(4-OPh)-GABA}-NDAL[NMeI][β3hP]-NH2) | > 10000 nM | 8 min | 0.882 L/kg | 200 | 68.4% | 181 nM | 182000 | 21 nM | 38100 | 85 | 0.055 nM | > 10000 nM | 261 nM | 1.53 | > 182000 | 74.5 mL/min/kg | 3290 | 2100 nM | 11 nM | 4740
CC(C)C[C@H](NC(=O)[C@H](CCN)NC(=O)[C@H](CC(=O)O)NC(=O)[C@H](CC(N)=O)NC(=O)CCCNS(=O)(=O)c1ccc(Oc2ccccc2)cc1)C(=O)N(C)[C@@H](CCC(=O)O)C(=O)N1CCC[C@H]1CC(N)=O ({Benzenesulfonyl(4-OPh)-GABA}-ND[Dab]L[NMeE][β3hP]-NH2) | > 10000 nM | 9 min | 0.275 L/kg | 7740 | 91.7% | > 10000 nM | > 147000 | 364 nM | > 147000 | 7240 | 0.068 nM | > 10000 nM | 5880 nM | 1.26 | > 147000 | 20.2 mL/min/kg | > 147000 | > 10000 nM | 526 nM | 86500
